We go through seven compounds from ChEMBL document CHEMBL1126761, “A novel constrained reduced-amide inhibitor of HIV-1 protease derived from the sequential incorporation of gamma-turn mimetics into a model substrate” (J Med Chem, 1993).

Each structure is given as a SMILES string. *1 amine or outer side, *2 acyl side, *3 side chain or, on linkers, in order; H or OH if unused. Where a SMILES comes first, the peptide text is derived from it. [ ]: non-standard residue; d: D form. X1 = CC(N[*:1])C1=CCC(=O)N([C@@H](Cc2ccccc2)C(=O)[*:2])CC1; X2 = O=C([C@@H]1CCCN1C[C@H](Cc1ccccc1)N[*:1])[*:2]

In the experiment the target is Human immunodeficiency virus type 1 protease (Human immunodeficiency virus 1, UniProt Q72874). The experiment in a line: Inhibition constant was determined against HIV-1 protease.
Usually Ki stands for a dissociation constant, usually derived from enzyme kinetics or from competition with a known ligand. Lower therefore signals a stronger hold on the target. As for `CC(C)[C@H](NC(=O)[C@@H](NC(=O)[C@@H]1CCCN1C[C@H](Cc1ccccc1)NC(=O)[C@H](C)NC(=O)[C@H](C)NC(=O)[C@@H](N)CO)C(C)C)C(N)=O` (H-SAA[X2]VV-NH2), the Ki turned out to be 18.8 µM. On to `CC(NC(=O)[C@@H](N)CO)C1=CCC(=O)N([C@@H](Cc2ccccc2)C(=O)N2CCC[C@H]2C(=O)N[C@H](C(=O)N[C@H](C(N)=O)C(C)C)C(C)C)CC1` (some centres not stated) (H-S[X1]PVV-NH2), for which the Ki was > 2000 µM. With `COC(=O)[C@@H](NC(=O)[C@@H](NC(=O)[C@H](C)N1CCC([C@H](C)NC(=O)[C@H](C)N)=CC(Cc2ccccc2)C1)C(C)C)C(C)C` (stereo in doubt; form 1) the figure was 0.43 µM. Take `COC(=O)[C@@H](NC(=O)[C@@H](NC(=O)[C@H](C)N1CCC([C@H](C)NC(=O)[C@H](C)N)=CC(Cc2ccccc2)C1=O)C(C)C)C(C)C` (stereo in doubt; form 1): the Ki turned out to be 372 µM. Turning to `COC(=O)[C@@H](NC(=O)[C@H](C(C)C)N1CCC(C(Cc2ccccc2)NC(=O)[C@H](C)NC(=O)[C@H](C)NC(=O)[C@@H](N)CO)=CCC1=O)C(C)C` (stereo in doubt; form 1), the Ki is > 2000 µM. Turning to `COC(=O)[C@@H](NC(=O)[C@@H](NC(=O)[C@H](C)N1CCC([C@H](C)NC(=O)[C@H](C)N)=CC(Cc2ccccc2)C1=O)C(C)C)C(C)C` (stereo in doubt; form 2), the Ki was 147 µM. `COC(=O)[C@@H](NC(=O)[C@H](C(C)C)N1CCC(C(Cc2ccccc2)NC(=O)[C@H](C)NC(=O)[C@H](C)NC(=O)[C@@H](N)CO)=CCC1=O)C(C)C` (stereo in doubt; form 2) gave a Ki of 1700 µM.
